This is an account of results in EP3351262A1, “CURAGLUTIDE FOR IN TREATMENT OF PREDIABETES, DIABETES, OBESITY AND METABOLIC DISEASES ASSOCIATED THERETO” (Istanbul Universitesi Rektorlugu, priority 2016, dated 2018).

Several values for one entry are separate records, joined by “and”; a condition that tells them apart may be missing. Identical values can stand only once.

What all share (format): cell-based, rat
One assay has as its system p53. The assay is described as follows: Western blotting of apoptotic protein p53 in cell lysates. As to conditions: for amount of intracellular p53: control 1.06±0.00; for p-53 amounts: INS-1 cells, normalized to β-actin. The protocol: (§1) Trypsin is applied to 75 cm^2 flask containing INS-1 […] beta cells and it is centrifuged in 1500 rpm for 15 minutes. According to the density of pellet formed after centrifuge, it is centrifuged at 4 °C in 1500 rpm for 5 minutes by providing the washing with pipetting with PBS and transferring into 2 ml eppendorf. The supernatant was removed, lysis buffer was added according to the density of pellet and pipetting is performed carefully. It was left for 30 minutes on the ice by vortexing in every 10 minutes. Then the cells were allowed to lysis by ultrasonication for 10 seconds for 5 times, keeping on ice for 10 seconds and they were centrifuged at 4 °C in 13000 rpm for 10 minutes. The supernatant occurred was taken to 0,2 ml eppendorf tubes, and they were taken to -86 °C temperature. These operations were repeated for 3 times for each of the control and experiment groups.
(§2) Bradford method was used in order to determine the protein content. First, a standard curve was formed by using BSA (bovine serum albumin) having a concentration of 1.46 mg/ml. This curve was prepared as following: Bradford solution was added into 80 µg/ml, 40 µg/ml, 20 µg/ml, 10 µg/ml BSA, their absorbance was measured in 595 nm, it was diluted in a way that the lysates are 1/100 and 160 µl was taken, their absorbance in the same wavelengths was determined. After absorbance/concentration graph of the standards was obtained, the concentrations of the samples whose concentrations are […] were determined by using the slope equation of this graph.
(§3) Protein bands separated by electrophoresis in gel were transferred from the gel into nitrocellulose membrane. After membrane transferring operation, transfer efficiency was controlled for 15 minutes by using Ponceau S painting solution.
(§4) The membrane wherein the proteins were transferred, was incubated at room temperature for 1 hour with blocking solution prepared with skimmed milk powder. The membranes were incubated with primary antibodies suitable diluting ratios (Table 1) for 1 night at +4 °C, following the blocking operation. Following this operation, washed membranes were treated with peroxidase marked goat anti-rabbit secondary IgGs (Santa Cruz, CA, USA, sc-2004) at room temperature for 1 hour. Following the treatment with secondary antibodies of membranes, they were washed with washing solution and shaken with pure water. Then, the specific protein bands were monitored by KodakGL1500 gel monitoring system, by chemiluminescence method using Western Blotting Luminol Reagent (Santa Cruz, CA, USA, sc-2048) chemiluminescence substrate. Their densitometric analysis were performed by "Kodak Molecular Imaging Systems" software. The statistical analysis between the bands were performed by normalizing the band densities of the protein samples whose densitometric analysis were performed, to the density of β-actin protein. Table 1: The primary antibodies used in Western blotting method, the dilution ratios and periods thereof
(§5) In order to determine the apoptosis dose, p 53, cytochrome-c and active caspase-3 protein amounts were determined by western blotting method by obtaining lysate from the cells in which 0.75, 1,1.75,2,2.5 and 3 mM palmitic acid were applied. The graph obtained from western blotting bands and the calculation performed as a result of the analysis of these bands is shown in Figure 3.
(§6) The amount of intracellular proteins such as p53, cytochrome-c and active caspase-3 were observed by western blotting in order to examine the effect of curaglutide on apoptosis stimulated by 2 mM palmitic acid in INS-1 beta cells.
In general terms: In western blotting, separated proteins are transferred to a membrane and probed.

Another assay deals with LC3-II. The experiment in a line: Western blotting of autophagy marker LC3-II in cell lysates. To be noted: for amount of intracellular LC3-II: control 0.44±0.00; for LC3-II amounts: INS-1 cells. The protocol:
as §1, §2, §3, §4
In order to determine the autophagic dose, LC3-II protein amounts which are the autophagic markers were determined by western blotting method by obtaining lysate from the cells on which 0.75, 1, 1.75, 2, 2.5 and 3 mM palmitic acid was applied. The graph obtained from western blotting bands and the calculation performed as a result of the analysis of these bands is shown in Figure 2.
Intracellular LC3 protein amount was observed by western blotting in order to examine the effect of curaglutide on autophagy stimulated by 1,75 mM palmitic acid in INS-1 beta cells.

A further assay concerns cytochrome-c. The experiment in a line: Western blotting of apoptotic protein cytochrome-c in cell lysates. To be noted: for amount of cytochrome-c: control 1.02±0.02; for cytochrome-c amounts: INS-1 cells, normalized to β-actin. The protocol: as §1, §2, §3, §4, §5, §6
In the next assay the test system is active caspase-3. The assay is described as follows: Western blotting of apoptotic protein active caspase-3 in cell lysates. To be noted: for amount of active caspase-3: control 1.07±0.01; for active caspase-3 amounts: INS-1 cells, normalized to β-actin. The method, then: as §1, §2, §3, §4, §5, §6
[1] abbreviates: 10 nM curaglutide as curative agent, 2 mM palmitic acid (apoptotic dose).
The mark [2] stands for this setting: 10 nM curaglutide as protector against 2 mM palmitic acid (apoptotic dose).

Consider `CC[C@H](C)[C@H](NC(=O)[C@H](Cc1ccccc1)NC(=O)[C@H](CCC(=O)O)NC(=O)[C@H](CCCCN)NC(=O)[C@H](C)NC(=O)[C@H](C)NC(=O)[C@H](CCC(N)=O)NC(=O)CNC(=O)[C@H](CCC(=O)O)NC(=O)[C@H](CC(C)C)NC(=O)[C@H](Cc1ccc(O)cc1)NC(=O)[C@H](CO)NC(=O)[C@H](CO)NC(=O)[C@@H](NC(=O)[C@H](CC(=O)O)NC(=O)[C@H](CO)NC(=O)[C@@H](NC(=O)[C@H](Cc1ccccc1)NC(=O)[C@@H](NC(=O)CNC(=O)[C@H](CCC(=O)O)NC(=O)[C@H](C)NC(=O)[C@H](Cc1c[nH]cn1)NC(C)=O)[C@@H](C)O)[C@@H](C)O)C(C)C)C(=O)N[C@@H](C)C(=O)N[C@@H](Cc1c[nH]c2ccccc12)C(=O)N[C@@H](CC(C)C)C(=O)N[C@H](C(=O)N[C@@H](CCCCN)C(N)=O)C(C)C` [curaglutide], for which the “amount of intracellular p53” value with p53 (setting [1]) is given as 0.65±0.13; in the assay with p53 (setting [2]) it was 0.54±0.24. The “amount of intracellular LC3-II” value was 0.32±0.00 with LC3-II (10 nM curaglutide as curative agent, 1.75 mM palmitic acid (autophagic dose)) and 0.29±0.00 with LC3-II (10 nM curaglutide as protector, 1.75 mM palmitic acid (autophagic dose)). The amount of cytochrome-c in the assay with cytochrome-c (setting [1]) came out at 0.67±0.07; in the assay on cytochrome-c (setting [2]), 0.80±0.10. In addition, the figures for the “amount of active caspase-3” value with active caspase-3 (setting [1]) and in the assay on active caspase-3 (setting [2]) were 0.54±0.00 and 0.67±0.00, respectively.

Take `CCCCCCCCCCCCCCCC(=O)O` [palmitic acid]: the p-53 amounts is 1.1±0.00 in the assay with p53 (0.75 mM palmitic acid, control 1.04±0.00); 1.14±0.00 in the assay on p53 (1 mM palmitic acid, control 1.04±0.00); 1.16±0.05 in the assay on p53 (1.75 mM palmitic acid, control 1.04±0.00); 1.3±0.02 and 1.31±0.02 with p53 (2 mM palmitic acid (apoptotic dose), control 1.04±0.00 / 1.06±0.00); 1.14±0.06 with p53 (2.5 mM palmitic acid, control 1.04±0.00); 1.03±0.00 in the assay on p53 (3 mM palmitic acid, control 1.04±0.00). The LC3-II amounts is 0.60±0.00 with LC3-II (0.75 mM palmitic acid, band density normalized to β-actin, control 0.50±0.01); 0.60±0.00 in the assay on LC3-II (1 mM palmitic acid, band density normalized to β-actin, control 0.50±0.01); 0.70±0.03 and 0.70±0.01 in the assay with LC3-II (1.75 mM palmitic acid (autophagic dose), normalized to β-actin, control 0.50±0.01 / 0.44±0.00); 0.52±0.02 in the assay with LC3-II (2 mM palmitic acid, band density normalized to β-actin, control 0.50±0.01); 0.50±0.00 in the assay on LC3-II (2.5 mM palmitic acid, band density normalized to β-actin, control 0.50±0.01); 0.49±0.01 with LC3-II (3 mM palmitic acid, band density normalized to β-actin, control 0.50±0.01). For the same molecule, the cytochrome-c amounts in the assay on cytochrome-c (0.75 mM palmitic acid, control 1.05±0.02) is 1.07±0.02; in the assay on cytochrome-c (1 mM palmitic acid, control 1.05±0.02) it was 1.06±0.01; in the assay on cytochrome-c (1.75 mM palmitic acid, control 1.05±0.02), 1.07±0.05; in the assay on cytochrome-c (2 mM palmitic acid (apoptotic dose), control 1.05±0.02 / 1.02±0.02) it was 1.23±0.00 and 1.22±0.00; with cytochrome-c (2.5 mM palmitic acid, control 1.05±0.02), 1.11±0.04; in the assay with cytochrome-c (3 mM palmitic acid, control 1.05±0.02), 1.09±0.02. For the same molecule, the “active caspase-3 amounts” value in the assay with active caspase-3 (0.75 mM palmitic acid, control 1.08±0.00) is 1.03±0.03; in the assay with active caspase-3 (1 mM palmitic acid, control 1.08±0.00), 1.03±0.00; in the assay on active caspase-3 (1.75 mM palmitic acid, control 1.08±0.00), 1.02±0.05; with active caspase-3 (2 mM palmitic acid (apoptotic dose), control 1.08±0.00 / 1.07±0.01), 1.26±0.00 and 1.22±0.00; in the assay on active caspase-3 (2.5 mM palmitic acid, control 1.08±0.00), 1.15±0.03; with active caspase-3 (3 mM palmitic acid, control 1.08±0.00), 1.06±0.00.
